# From ChEMBL document CHEMBL5058564, “EUbOPEN Chemogenomics Library 2 (Incucyte)” (2022)
# Legend:
# Assay type in all cases: toxicity, cell-based
# HEK-293T = assay: Incucyte cell viability with HEK293T; settings: human, 10 µM, compound concentration 10 uM
# Fibroblast = assay: Incucyte cell viability with human fibroblast; settings: 10 µM, compound concentration 10 uM
# U2OS = assay: Incucyte cell viability with U2OS; settings: human, 10 µM, compound concentration 10 uM
# [1] = 0 h, replicate number 1, timepoint 0 hours
# [2] = 0 h, replicate number 2, timepoint 0 hours
# [3] = 6 h, replicate number 1, timepoint 6 hours
# [4] = 6 h, replicate number 2, timepoint 6 hours
# [5] = 12 h, replicate number 1, timepoint 12 hours
# [6] = 12 h, replicate number 2, timepoint 12 hours
# [7] = 18 h, replicate number 1, timepoint 18 hours
# [8] = 18 h, replicate number 2, timepoint 18 hours
# [9] = 24 h, replicate number 1, timepoint 24 hours
# [10] = 24 h, replicate number 2, timepoint 24 hours
# Also: unitless GR value; below 1 slowed growth and below 0 cell loss.
Structure (SMILES),Growth Rate (HEK-293T; [1]),Growth Rate (HEK-293T; [2]),Growth Rate (HEK-293T; [3]),Growth Rate (HEK-293T; [5]),Growth Rate (HEK-293T; [6]),Growth Rate (HEK-293T; [7]),Growth Rate (HEK-293T; [9]),Growth Rate (HEK-293T; [10]),Growth Rate (Fibroblast; [1]),Growth Rate (Fibroblast; [2]),Growth Rate (Fibroblast; [5]),Growth Rate (Fibroblast; [6]),Growth Rate (Fibroblast; [9]),Growth Rate (U2OS; [1]),Growth Rate (U2OS; [3]),Growth Rate (U2OS; [5]),Growth Rate (U2OS; [8]),Growth Rate (U2OS; [9]),Growth Rate (Fibroblast; [8]),Growth Rate (U2OS; [7]),further results
Nc1nc(Nc2ccccc2)nc2c1ncn2[C@@H]1O[C@H](CO)[C@@H](O)[C@H]1O,0.49,-0.14,0.52,0.7,0.63,0.76,0.85,0.9,0.77,0.2,0.83,0.96,0.93,0.4,0.95,0.84,0.91,0.93,,,Growth Rate (HEK-293T; [4]): 0.76; Growth Rate (HEK-293T; [8]): 0.95
NCCc1c[nH]c2ccc(C(N)=O)cc12.O=C(O)/C=C\C(=O)O,0.4,-0.18,0.61,0.96,,0.9,0.9,,0.89,-0.08,,,,-0.1,0.87,,,0.83,0.95,0.89,Growth Rate (U2OS; [2]): 0.34
Brc1c(N=C2NCCN2)ccc2nccnc12.O=C(O)C(O)C(O)C(=O)O,0.76,0.92,0.47,0.79,0.72,0.92,0.83,0.88,,0.6,0.82,0.94,0.87,0.29,0.6,0.41,0.91,0.89,0.83,0.78,Growth Rate (HEK-293T; [4]): 0.95; Growth Rate (Fibroblast; [3]): 0.39; Growth Rate (Fibroblast; [4]): 0.7; Growth Rate (Fibroblast; [7]): 0.86; Growth Rate (Fibroblast; [10]): 0.91
Cc1ccccc1N1CCN(S(=O)(=O)C[C@]23CC[C@H](C[C@@H]2NC(=O)[C@@H](N)CCS(C)(=O)=O)C3(C)C)CC1.Cl,0.81,0.34,0.8,0.81,0.75,0.84,0.97,0.93,0.33,0.56,,0.8,,-0.8,0.91,0.85,,0.89,0.91,0.77,Growth Rate (HEK-293T; [8]): 0.92; Growth Rate (Fibroblast; [10]): 0.76; Growth Rate (U2OS; [2]): -0.25; Growth Rate (U2OS; [10]): 1
CCCCCC(O)/C=C/[C@H]1C(=O)CC(O)C1C/C=C\CCCC(=O)O (some centres undefined),0.99,,0.68,0.59,,0.69,0.58,,0.39,-0.28,0.36,,0.54,-0.23,0.59,0.59,0.78,0.72,,0.66,Growth Rate (Fibroblast; [3]): -0.61; Growth Rate (Fibroblast; [7]): 0.47; Growth Rate (U2OS; [2]): 0.05; Growth Rate (U2OS; [6]): 0.84; Growth Rate (U2OS; [10]): 0.87
